Results published in patent US20240246992A1, “MACROCYCLIC LRRK2 KINASE INHIBITORS” (LES LABORATOIRES SERVIER, priority 2021, published 2024).

Molecular target: human recombinant LRRK2 protein (Homo sapiens, UniProt Q5S007)
Assay: LRRK2 kinase activity assay (ADP-Glo, LRRKtide peptide)
Assay type: biochemical
Settings: human recombinant LRRK2 wt, LRRKtide peptide and ATP, 1 h at 37° C.
Procedure: The inhibition of LRRK2 kinase was assessed using human recombinant LRRK2 protein in an in vitro peptide-based kinase assay.
LRRK2 Kinase reactions were carried out in 384-well white polystyrene plates in a final volume of 6 μl using ADP-Glo™ Kinase Assay kit (Promega Corp.). Compound and substrates (LRRKtide peptide and ATP) in assay buffer were first dispensed in wells. Kinase reaction was then started by the addition of human recombinant LRRK2 protein. After 1 h-incubation at 37° C., the enzymatic reactions was stopped by the addition of 6 μl of ADP-Glo Reagent-1 and an additional 40-minutes incubation at 23° C. (residual ATP depletion). A final 30-minutes incubation after 12 μL reagent-2 addition (ADP to ATP conversion and luciferin/luciferase reaction) was performed before luminescent signal acquisition (EnVision™ multimode plate reader—PerkinElmer, Inc.). Data from 10 individual concentrations of tested compounds (N=2) were fitted (XLfit™—ID Business Solutions Ltd) to deliver IC50s (compound concentration leading to 50% inhibition of reference enzymatic activity).
The compounds are dissolved to 5 mM in DMSO. When needed, solutions are sonicated in a bath sonicator.
Table 2 provides the pIC50 values of the compounds according to the invention, obtained using the above mentioned kinase assay. Activities are represented as +++, ++ and +, having the following meanings: • «+++» means an IC50<10 nM • «++» means an IC50<100 nM • «+» means an IC50<1 μM • «−» means an IC50>1 μM

Chain of human recombinant LRRK2 protein (Q5S007 whole entry): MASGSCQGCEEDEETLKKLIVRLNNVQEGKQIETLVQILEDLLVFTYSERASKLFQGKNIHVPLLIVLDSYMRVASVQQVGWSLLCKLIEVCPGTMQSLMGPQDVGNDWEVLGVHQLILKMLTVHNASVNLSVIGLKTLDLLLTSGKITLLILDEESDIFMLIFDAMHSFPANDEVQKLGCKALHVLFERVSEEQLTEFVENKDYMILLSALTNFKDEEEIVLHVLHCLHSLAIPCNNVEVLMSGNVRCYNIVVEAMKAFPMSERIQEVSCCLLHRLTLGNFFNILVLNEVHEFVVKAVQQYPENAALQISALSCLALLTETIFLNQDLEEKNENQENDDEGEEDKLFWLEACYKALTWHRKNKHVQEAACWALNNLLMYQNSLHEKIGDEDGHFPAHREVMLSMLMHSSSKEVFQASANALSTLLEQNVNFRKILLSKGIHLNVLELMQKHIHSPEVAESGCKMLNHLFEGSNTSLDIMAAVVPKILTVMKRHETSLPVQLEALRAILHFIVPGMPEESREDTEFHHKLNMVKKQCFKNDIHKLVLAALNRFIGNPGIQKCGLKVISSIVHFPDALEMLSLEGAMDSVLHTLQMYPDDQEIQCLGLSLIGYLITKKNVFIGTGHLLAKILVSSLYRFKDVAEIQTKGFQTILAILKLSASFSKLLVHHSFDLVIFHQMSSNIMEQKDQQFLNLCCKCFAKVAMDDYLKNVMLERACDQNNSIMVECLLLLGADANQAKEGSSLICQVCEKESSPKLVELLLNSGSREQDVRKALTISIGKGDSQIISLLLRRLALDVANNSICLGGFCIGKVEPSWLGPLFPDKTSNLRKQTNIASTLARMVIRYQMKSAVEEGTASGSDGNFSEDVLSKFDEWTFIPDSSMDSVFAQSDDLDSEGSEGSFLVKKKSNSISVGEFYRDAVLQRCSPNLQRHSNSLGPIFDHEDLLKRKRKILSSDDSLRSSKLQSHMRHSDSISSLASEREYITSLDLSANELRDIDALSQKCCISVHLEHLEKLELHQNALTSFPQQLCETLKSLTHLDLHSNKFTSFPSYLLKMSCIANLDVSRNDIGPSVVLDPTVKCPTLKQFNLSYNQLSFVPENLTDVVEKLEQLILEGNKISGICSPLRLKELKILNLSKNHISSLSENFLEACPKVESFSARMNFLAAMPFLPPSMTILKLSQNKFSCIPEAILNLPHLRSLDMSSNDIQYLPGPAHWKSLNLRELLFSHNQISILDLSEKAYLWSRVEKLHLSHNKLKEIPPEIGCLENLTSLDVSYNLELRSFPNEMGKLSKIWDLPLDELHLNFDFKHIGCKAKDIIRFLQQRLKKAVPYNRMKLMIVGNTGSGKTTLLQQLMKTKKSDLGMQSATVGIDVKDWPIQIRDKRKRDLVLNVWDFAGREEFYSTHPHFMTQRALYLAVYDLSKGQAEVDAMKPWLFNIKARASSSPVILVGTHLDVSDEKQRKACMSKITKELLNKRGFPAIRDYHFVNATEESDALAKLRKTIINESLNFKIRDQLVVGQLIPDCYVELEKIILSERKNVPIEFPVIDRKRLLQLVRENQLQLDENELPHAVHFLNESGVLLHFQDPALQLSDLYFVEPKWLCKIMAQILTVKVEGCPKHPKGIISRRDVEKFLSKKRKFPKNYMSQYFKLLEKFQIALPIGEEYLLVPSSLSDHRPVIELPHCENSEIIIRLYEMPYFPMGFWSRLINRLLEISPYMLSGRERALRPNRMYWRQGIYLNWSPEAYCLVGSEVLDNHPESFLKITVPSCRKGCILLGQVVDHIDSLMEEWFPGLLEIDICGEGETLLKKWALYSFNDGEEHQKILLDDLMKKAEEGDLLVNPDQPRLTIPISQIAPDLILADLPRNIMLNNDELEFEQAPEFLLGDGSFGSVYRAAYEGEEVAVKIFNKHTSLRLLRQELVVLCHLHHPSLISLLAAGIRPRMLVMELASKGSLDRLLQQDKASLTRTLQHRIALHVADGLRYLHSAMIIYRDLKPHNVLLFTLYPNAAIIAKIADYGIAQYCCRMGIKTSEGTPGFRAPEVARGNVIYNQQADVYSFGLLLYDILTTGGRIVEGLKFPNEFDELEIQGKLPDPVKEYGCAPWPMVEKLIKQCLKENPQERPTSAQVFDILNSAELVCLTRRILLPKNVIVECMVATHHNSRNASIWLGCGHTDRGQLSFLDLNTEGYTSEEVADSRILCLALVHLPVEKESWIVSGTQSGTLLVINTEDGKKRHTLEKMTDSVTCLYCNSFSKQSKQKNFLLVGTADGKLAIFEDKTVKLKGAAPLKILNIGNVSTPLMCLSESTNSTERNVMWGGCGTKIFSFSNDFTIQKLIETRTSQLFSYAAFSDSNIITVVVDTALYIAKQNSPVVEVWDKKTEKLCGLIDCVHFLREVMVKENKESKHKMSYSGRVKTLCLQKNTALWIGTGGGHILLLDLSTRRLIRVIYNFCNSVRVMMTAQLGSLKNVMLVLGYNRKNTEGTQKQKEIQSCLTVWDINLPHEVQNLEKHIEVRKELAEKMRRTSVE

Compound	IC50 [nM]
C[C@@H]1COc2ccc3[nH]nc(c3c2)-c2cccc(c2)OCCN[C@H]1C [Example 169, (11S,12S)-11,12-dimethyl-7,14-dioxa-10,19,20-triazatetracyclo[13.5.2.1^2,6.0^18,21]tricosa-1(20),2(23),3,5,15(22),16,18(21)-heptaene]	< 100
CC1Oc2cncc(c2)-c2n[nH]c3ccc(cc23)OCCCN(C)C1=O (centres unmarked) [Example 160, 8,10-dimethyl-7,14-dioxa-4,10,19,20-tetraazatetracyclo [13.5.2.1^2,6.0^18,21]tricosa-1(20),2,4,6(23),15,17,21-heptaen-9-one]	< 100
C[C@@H]1CCOCCOCCn2ncc(n2)-c2n[nH]c3ccc(cc23)O1 [Example 133, (14R)-14-methyl-8,11,15-trioxa-4,5,20,21,24-pentaazatetracyclo[14.5.2.1^2,5.0^19,22]tetracosa-1(21),2(24),3,16(23),17,19(22)-hexaene]	< 100
O=C1COc2cccc(c2)-c2n[nH]c3ccc(cc23)OCCC(CF)N1 (centres unmarked) [Example 154, 11-(fluoromethyl)-7,14-dioxa-10,19,20-triazatetracyclo [13.5.2.1^2,6.0^18,21]tricosa-1(20),2,4,6(23),15,17,21-heptaen-9-one]	< 100
C[C@H]1CCOC[C@H](C)Oc2ccc3[nH]nc(c3c2)-c2cncc(c2)O1 [Example 12, (8S,13S)-8,13-dimethyl-7,11,14-trioxa-4,19,20-triazatetracyclo[13.5.2.1^2,6.0^18,21]tricosa-1(20),2(23),3,5,15(22),16,18(21)-heptaene]	< 100
C[C@@H]1CCNC(=O)CCn2cc(cn2)-c2n[nH]c3ccc(cc23)O1 [Example 179, (12R)-12-methyl-13-oxa-4,5,9,18,19-pentaazatetracyclo [12.5.2.1^2,5.0^17,20] docosa-1(19),2(22),3,14(21),15,17(20)-hexaen-8-one]	< 10
c1cc2[nH]nc3c2cc1OCCCNCCOc1cc-3cc(C2CCCOC2)c1 (centres unmarked) [Example 149, 4-(oxan-3-yl)-7,14-dioxa-10,19,20-triazatetracyclo[13.5.2.1^2,6.0^18,21]tricosa-1(20),2(23),3,5,15,17,21-heptaene]	< 10
C[C@@H]1COc2ccc3[nH]nc(c3c2)-c2cccc(c2)OCCN[C@@H]1C [Example 228, (11R,12S)-11,12-dimethyl-7,14-dioxa-10,19,20-triazatetracyclo[13.5.2.1^2,6.0^18,21]tricosa-1(20),2,4,6(23),15(22),16,18(21)-heptaene]	< 10
C[C@@H]1COCCOCC(F)n2cc(cn2)-c2n[nH]c3ccc(cc23)O1 (single isomer, unassigned) [Example 105, (6R*,13R)-6-fluoro-13-methyl-8,11,14-trioxa-4,5,19,20-tetraazatetracyclo[13.5.2.1^2,5.0^18,21]tricosa-1(20),2(23),3, 15(22),16,18(21)-hexaene]	< 10
C[C@@H]1Oc2ccc3[nH]nc(c3c2)-c2cnn(c2)CCOCCO[C@@H]1C [Example 100, (12R,13S)-12,13-dimethyl-8,11,14-trioxa-4,5,19,20-tetraazatetra cyclo[13.5.2.1^2,5.0^18,21]tricosa-1(20),2(23),3,15(22),16,18(21)-hexaene]	< 100
FC1(F)COCCCn2cc(cn2)-c2n[nH]c3ccc(cc23)OC1 [Example 111, 11,11-difluoro-9,13-dioxa-4,5,18,19-tetraazatetracyclo[12.5.2.1^2,5.0^17,20] docosa-1(19),2(22),3,14(21),15,17(20)-hexaene]	< 100
C[C@H]1COCCCOCc2nc(cn2C)-c2n[nH]c3ccc(cc23)O1 [Example 119, (13S)-4,13-dimethyl-7,11,14-trioxa-4,19,20,23-tetraazatetracyclo [13.5.2.1^2,5.0^18,21]tricosa-1(20),2,5(23),15(22),16,18(21)-hexaene]	< 1000
c1cc2cc(c1)[C@H]1C[C@@H]1CNCCCOc1ccc3[nH]nc-2c3c1 [Example 165, (7S,9S)-15-oxa-11,20,21-triazapentacyclo[14.5.2.1^2,6.0^7,9.0^19,22]tetracosa-1(21),2(24),3,5,16(23),17,19(22)-heptaene]	< 1000
C[C@H]1COCCOCCn2cc(cn2)-c2n[nH]c3ccc(cc23)O1 [Example 24, (13S)-13-methyl-8,11,14-trioxa-4,5,19,20-tetraazatetracyclo[13.5.2.1^2,5.0^18,21]tricosa-1(20),2(23),3,15(22),16,18(21)-hexaene]	< 10
COCC1CCOc2ccc3[nH]nc(c3c2)-c2cccc(c2)OCC(=O)N1 (single isomer, unassigned) [Example 150, (11S) or (11R)-11-(methoxymethyl)-7,14-dioxa-10,19,20-triazatetracyclo[13.5.2.1^2,6.0^18,21]tricosa-1(20),2(23),3,5,15,17,21-heptaen-9-one]	< 100
c1cc2[nH]nc3c2cc1OCCCCOCCn1ncc-3n1 [Example 115, 8,13-dioxa-4,5,18,19,22-pentaazatetracyclo[12.5.2.1^2,5.0^17,20]docosa-1(19),2(22),3,14(21),15,17(20)-hexaene]	< 10
CC1Oc2cc(cc(N3CCOCC3)c2)-c2n[nH]c3ccc(cc23)OCCCNC1=O (centres unmarked) [Example 176, 8-methyl-4-(morpholin-4-yl)-7,14-dioxa-10,19,20-triazatetracyclo[13.5.2.1^2,6.0^18,21]tricosa-1(20),2,4,6(23),15,17,21-heptaen-9-one]	< 10
C[C@H]1COCCOCCn2ccc(n2)-c2n[nH]c3ccc(cc23)O1 [Example 80, (13S)-13-methyl-8,11,14-trioxa-5,19,20,23-tetraazatetracyclo [13.5.2.1^2,5.0^18,21]tricosa-1(20),2(23),3,15(22),16,18(21)-hexaene]	< 1000

Now from value to molecule:

IC50 [nM]	Compound
< 100	C[C@H]1CCOCCOCc2nc(cs2)-c2n[nH]c3ccc(cc23)O1 [Example 62, (13S)-13-methyl-7,10,14-trioxa-4-thia-19,20,23-triazatetracyclo[13.5.2.1^2,5.0^18,21]tricosa-1(20),2,5(23),15(22),16,18(21)-hexaene]
< 100	CN1CCCOc2ccc3[nH]nc(c3c2)-c2cc(C#N)cc(c2)OCC1=O [Example 191, 10-methyl-9-oxo-7,14-dioxa-10,19,20-triazatetracyclo [13.5.2.1^2,6.0^18,21]tricosa-1(20),2,4,6(23),15,17,21-heptaene-4-carbonitrile]
< 10	C[C@@H]1CCOCCCn2ncc(n2)-c2n[nH]c3ccc(cc23)O1 [Example 90, (12R)-12-methyl-9,13-dioxa-4,5,18,19,22-pentaazatetracyclo[12.5.2.1^2,5.0^17,20]docosa-1(19),2(22),3,14(21),15,17(20)-hexaene]
< 10	C[C@@H]1CCOCCCn2cc(cn2)-c2n[nH]c3ccc(cc23)O1 [Example 42, (12R)-12-methyl-9,13-dioxa-4,5,18,19-tetraazatetracyclo [12.5.2.1^2,5.0^17,20]docosa-1(19),2(22),3,14(21),15,17(20)-hexaene]
< 100	C[C@H]1COCCOCCc2cncc(c2)-c2n[nH]c3ccc(cc23)O1 [Example 69, (14S)-14-methyl-9,12,15-trioxa-4,20,21-triazatetracyclo[14.5.2.1^2,6.0^19,22] tetracosa-1(21),2(24),3,5,16(23),17,19(22)-heptaene]
< 10	C[C@H]1CCOCCCc2csc(n2)-c2n[nH]c3ccc(cc23)O1 [Example 48, (12S)-12-methyl-9,13-dioxa-3-thia-18,19,22-triazatetracyclo[12.5.2.1^2,5.0^17,20]docosa-1(19),2(22),4,14(21),15,17(20)-hexaene]
< 10	c1cc2[nH]nc3c2cc1OCCCOCCCn1ncc-3n1 [Example 74, 9,13-dioxa-4,5,18,19,22-pentaazatetracyclo[12.5.2.1^2,5.0^17,20]docosa-1(19), 2(22),3,14(21),15,17(20)-hexaene]
< 100	c1nn2cc1-c1n[nH]c3cnc(cc13)OCCOCCOCC2 [Example 96, 8,11,14-trioxa-4,5,16,19,20-pentaazatetracyclo[13.5.2.1^2,5.0^18,21]tricosa-1(20),2(23),3,15(22),16,18(21)-hexaene]
< 100	C[C@H]1COCCOc2ccc3[nH]nc(c3c2)-c2cnn(c2)CCO1 [Example 61, (9S)-9-methyl-8,11,14-trioxa-4,5,19,20-tetraazatetracyclo[13.5.2.1^2,5.0^18,21] tricosa-1(20),2(23),3,15(22),16,18(21)-hexaene]
< 10	c1cc2[nH]nc3c2cc1NCCOCCOc1cc-3cc(N2CCOCC2)c1 [Example 1, 4-(morpholin-4-yl)-7,10-dioxa-13,18,19-triazatetracyclo[12.5.2.1^2,6.0^17,20] docosa-1(19),2(22),3,5,14(21),15,17(20)-heptaene]
< 10	C[C@H]1CCNCCOc2cncc(c2)-c2n[nH]c3ccc(cc23)O1 [Example 232, (13S)-13-methyl-7,14-dioxa-4,10,19,20-tetraazatetracyclo[13.5.2.1^2,6.0^18,21]tricosa-1(20),2,4,6(23),15(22),16,18(21)-heptaene]
